For the first test, the target named is T1, JMJD2C (Homo sapiens, UniProt Q9H3R0).
T1 construct: purchased BPS Bioscience 50105
T1 sequence (Q9H3R0 2-372): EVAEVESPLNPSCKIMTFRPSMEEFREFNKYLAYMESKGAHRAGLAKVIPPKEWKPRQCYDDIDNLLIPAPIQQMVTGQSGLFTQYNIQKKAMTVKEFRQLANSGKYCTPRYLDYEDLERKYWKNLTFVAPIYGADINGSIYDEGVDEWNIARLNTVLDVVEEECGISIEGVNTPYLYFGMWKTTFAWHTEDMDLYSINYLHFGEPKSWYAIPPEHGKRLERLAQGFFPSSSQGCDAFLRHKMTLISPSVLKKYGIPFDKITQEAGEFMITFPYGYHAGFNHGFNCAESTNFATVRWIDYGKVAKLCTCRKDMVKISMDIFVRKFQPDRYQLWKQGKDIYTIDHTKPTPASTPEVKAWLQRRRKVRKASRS
The test can be described thus: JMJD2C in vitro enzyme inhibition assay (TR-FRET). Format: biochemical.
Conditions: not given
A digest of the protocol: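 IC50 came from 665/615 TR-FRET ratios (Eu-anti-H3K9me2 antibody, streptavidin-APC, EDTA quench) over 11-point inhibitor series. Reactions ran 30 min at room temperature: 0.3 nM JMJD2C (AA 2-372, baculovirus), 300 nM biotinylated H3K9me3 peptide, 2 μM alpha-ketoglutarate, 2 μM Fe(II), ascorbate, pH 7.3.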
In general terms: TR-FRET usually uses a lanthanide donor and a delayed reading to cut background.
For orientation: IC50 means the concentration at which inhibition is half-maximal. `Oc1nc(OC2CCc3ccccc32)nc2cnccc12` (stereo not drawn) [Example 192, 2-(2,3-dihydro-1H-inden-1-yloxy)pyrido[3,4-d]pyrimidin-4-ol] had an IC50 of 1000 to 10000 nM.
On to `Oc1nc(OCC2CCc3ccccc32)nc2cnccc12` (stereo not drawn) [Example 190, 2-(2,3-dihydro-1H-inden-1-ylmethoxy)pyrido[3,4-d]pyrimidin-4-ol], for which the IC50 is ≤ 100 nM.
Same read-out and setting: as for `O=C(NCCOc1nc(O)c2ccncc2n1)c1ccccc1` [Example 31, N-[2-(4-hydroxypyrido[3,4-d]pyrimidin-2-yl)oxyethyl]benzamide], the figure is 100 to 1000 nM; as for `Oc1nc(OCCOCc2ccccc2)nc2cnccc12` [Example 30, 2-(2-phenylmethoxyethoxy)pyrido[3,4-d]pyrimidin-4-ol], 100 to 1000 nM; as for `CCOc1nc(O)c2ccncc2n1` [Example 2, 2-ethoxypyrido[3,4-d]pyrimidin-4-ol], 100 to 1000 nM.
Still for that read-out and setting: as for `CC(C)(O)CCOc1nc(O)c2ccncc2n1` [Example 24, 2-(3-hydroxy-3-methylbutoxy)pyrido[3,4-d]pyrimidin-4-ol], the figure is 100 to 1000 nM.
Same read-out and setting: as for `Oc1nc(OCc2cccc3ccccc23)nc2cnccc12` [Example 184, 2-(naphthalen-1-ylmethoxy)pyrido[3,4-d]pyrimidin-4-ol], the figure is 100 to 1000 nM; as for `Oc1nc(OCC2CCOC2)nc2cnccc12` (stereo not drawn) [Example 27, 2-(oxolan-3-ylmethoxy)pyrido[3,4-d]pyrimidin-4-ol], 100 to 1000 nM; as for `CC(C)Oc1nc(O)c2ccncc2n1` [Example 1, 2-propan-2-yloxy-3H-pyrido[3,4-d]pyrimidin-4-one], 100 to 1000 nM.
Consider `N#Cc1cccc(COc2nc(O)c3ccncc3n2)c1` [Example 32, 3-[(4-hydroxypyrido[3,4-d]pyrimidin-2-yl)oxymethyl]benzonitrile], for which the IC50 was 100 to 1000 nM.
For `Oc1nc(OCc2coc3ccccc23)nc2cnccc12` [Example 193, 2-(1-benzofuran-3-ylmethoxy)pyrido[3,4-d]pyrimidin-4-ol], the IC50 was ≤ 100 nM.
`Cn1cnc(-c2nccc3c(=O)[nH]cnc23)c1` [Example 198, 8-(1-methylimidazol-4-yl)-3H-pyrido[3,4-d]pyrimidin-4-one] gave an IC50 of 100 to 1000 nM.
Still for that read-out and setting: the figure for `Oc1nc(OCc2ccccc2F)nc2cnccc12` [Example 178, 2-[(2-fluorophenyl)methoxy]pyrido[3,4-d]pyrimidin-4-ol] is ≤ 100 nM; for `Oc1nc(OCC2CCOc3ccccc32)nc2cnccc12` (stereo not drawn) [Example 195, 2-(3,4-dihydro-2H-1-benzopyran-4-ylmethoxy)pyrido[3,4-d]pyrimidin-4-ol] it is ≤ 100 nM; for `Oc1nc(OC2Cc3ccccc3C2)nc2cnccc12` [Example 189, 2-(2,3-dihydro-1H-inden-2-yloxy)pyrido[3,4-d]pyrimidin-4-ol] it is ≤ 100 nM.
As for `Oc1nc(OCc2cccc(F)c2F)nc2cnccc12` [Example 181, 2-[(2,3-difluorophenyl)methoxy]pyrido[3,4-d]pyrimidin-4-ol], the IC50 was ≤ 100 nM.
`Cn1ccc(COc2nc(O)c3ccncc3n2)n1` [Example 33, 2-[(1-methylpyrazol-3-yl)methoxy]pyrido[3,4-d]pyrimidin-4-ol]: the IC50 was ≤ 100 nM.
On the same count and under the same terms, the figure for `CC(=O)N(C)CCOc1nc(O)c2ccncc2n1` [Example 28, N-[2-(4-hydroxypyrido[3,4-d]pyrimidin-2-yl)oxyethyl]-N-methylacetamide] is 100 to 1000 nM.
`Oc1nc(OCc2ccc3ccccc3c2)nc2cnccc12` [Example 187, 2-(naphthalen-2-ylmethoxy)pyrido[3,4-d]pyrimidin-4-ol] returned an IC50 of 1000 to 10000 nM.
Same read-out and setting: as for `Oc1nc(OCc2cc(F)ccc2F)nc2cnccc12` [Example 182, 2-[(2,5-difluorophenyl)methoxy]pyrido[3,4-d]pyrimidin-4-ol], the figure is ≤ 100 nM; as for `Oc1nc(OC2CCOc3ccccc32)nc2cnccc12` (stereo not drawn) [Example 197, 2-(3,4-dihydro-2H-1-benzopyran-4-yloxy)pyrido[3,4-d]pyrimidin-4-ol], ≤ 100 nM.
On the same count and under the same terms, as for `Oc1nc(OCC2CCc3ccccc3C2)nc2cnccc12` (stereo not drawn) [Example 191, 2-(1,2,3,4-tetrahydronaphthalen-2-ylmethoxy)pyrido[3,4-d]pyrimidin-4-ol], the figure is ≤ 100 nM.
The same measure, in the same setting: as for `Oc1nc(OCc2ccccc2C(F)(F)F)nc2cnccc12` [Example 177, 2-{[2-(trifluoromethyl)phenyl]methoxy}pyrido[3,4-d]pyrimidin-4-ol], the figure is ≤ 100 nM; as for `Oc1nc(OCc2ccc(F)cc2)nc2cnccc12` [Example 180, 2-[(4-fluorophenyl)methoxy]pyrido[3,4-d]pyrimidin-4-ol], ≤ 100 nM; as for `Oc1nc(OCc2c(F)cccc2F)nc2cnccc12` [Example 183, 2-[(2,6-difluorophenyl)methoxy]pyrido[3,4-d]pyrimidin-4-ol], 100 to 1000 nM.
Compound `Oc1nc(OCc2ccccc2-c2ccccc2)nc2cnccc12` [Example 185, 2-[(2-phenylphenyl)methoxy]pyrido[3,4-d]pyrimidin-4-ol] came in with an IC50 of 100 to 1000 nM.
Same read-out and setting: as for `Oc1nc(OCc2cccc(F)c2)nc2cnccc12` [Example 179, 2-[(3-fluorophenyl)methoxy]pyrido[3,4-d]pyrimidin-4-ol], the figure is ≤ 100 nM.
With `Oc1nc(OCCOCC(F)(F)F)nc2cnccc12` [Example 23, 2-[2-(2,2,2-trifluoroethoxy)ethoxy]pyrido[3,4-d]pyrimidin-4-ol], the IC50 fell in the range of 100 to 1000 nM.
On to `CC(CO)COc1nc(O)c2ccncc2n1` (stereo not drawn) [Example 25, 2-(3-hydroxy-2-methylpropoxy)pyrido[3,4-d]pyrimidin-4-ol], for which the IC50 was 100 to 1000 nM.
Same read-out and setting: as for `Oc1nc(OC2CCCc3ccccc32)nc2cnccc12` (stereo not drawn) [Example 196, 2-(1,2,3,4-tetrahydronaphthalen-1-yloxy)pyrido[3,4-d]pyrimidin-4-ol], the figure is 1000 to 10000 nM; as for `Oc1nc(OCC2COc3ccccc32)nc2cnccc12` (stereo not drawn) [Example 194, 2-(2,3-dihydro-1-benzofuran-3-ylmethoxy)pyrido[3,4-d]pyrimidin-4-ol], 1000 to 10000 nM; as for `CC(C)OCCOc1nc(O)c2ccncc2n1` [Example 29, 2-(2-propan-2-yloxyethoxy)pyrido[3,4-d]pyrimidin-4-ol], 100 to 1000 nM.
With `Oc1nc(OCC2CCCO2)nc2cnccc12` (stereo not drawn) [Example 26, 2-(oxolan-2-ylmethoxy)pyrido[3,4-d]pyrimidin-4-ol], the IC50 was in the range of 100 to 1000 nM.
On the same count and under the same terms, the figure for `Oc1nc(OCC2CCCc3ccccc32)nc2cnccc12` (stereo not drawn) [Example 188, 2-(1,2,3,4-tetrahydronaphthalen-1-ylmethoxy)pyrido[3,4-d]pyrimidin-4-ol] is ≤ 100 nM.
Turning to `Oc1nc(Oc2ccccc2)nc2cnccc12` [Example 34, 2-phenoxypyrido[3,4-d]pyrimidin-4-ol], the IC50 was in the range of 100 to 1000 nM.
For the compound `Oc1nc(OCc2cccc(-c3ccccc3)c2)nc2cnccc12` [Example 186, 2-[(3-phenylphenyl)methoxy]pyrido[3,4-d]pyrimidin-4-ol], the IC50 lay within 100 to 1000 nM.

The test system of a further test is KDM5A/B. The test can be described thus: In vitro cell-based assay: immuno-blot quantification of tri-methyl H3K4 in ZR-75-1 breast cancer cells. Conditions: 72 hours, tri-methyl H3K4 level relative to GAPDH, percent of DMSO, read-out: Cellular IC50. A digest of the protocol:
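ZR-75-1 breast cancer cells treated 72 h with 11-point compound dilutions (1250 μM to 10 nM). H3K4me3 quantified by infrared immunoblot densitometry, normalized to GAPDH and expressed as percent of DMSO control; relative IC50 from curve fit.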
With `CCOc1nc(O)c2ccncc2n1` [Example 2, 2-ethoxypyrido[3,4-d]pyrimidin-4-ol], the 50% inhibitory concentration (IC50) was > 10000 nM.
Still for that read-out and setting: as for `CC(C)(O)CCOc1nc(O)c2ccncc2n1` [Example 24, 2-(3-hydroxy-3-methylbutoxy)pyrido[3,4-d]pyrimidin-4-ol], the figure is > 10000 nM; as for `Oc1nc(Oc2ccccc2)nc2cnccc12` [Example 34, 2-phenoxypyrido[3,4-d]pyrimidin-4-ol], > 10000 nM.
